These results are taken from US3985758A, “1,4-Dihydropyridine derivatives” (Yamanouchi Pharmaceutical Co., Ltd., priority 1973, dated 1976).

In brackets after ≈: the same amount, converted by molar mass. Structures can show the parent of a compound that is named as a salt. Where two headings read alike, the source gives them in different places.

Series [1] can be described thus: in vivo. To be noted: mouse, in vivo, iv. The method, then:
(§1) LD50 was determined by using mice.
(§2) 2. Acute toxicity in mice
(§3) Male ICR weighing 25 to 32 g were used. The test compounds were injected into tail vein and LD 50 values were determined.

The conditions of series [2]: cited from earlier work.
Series [3] can be described thus: Solubility in water at 25° C. Type of series: physicochemical.
For series [4] the following is noted: cited from earlier work. This is another data set of the same source.
For series [5], the system named is vertebral and femoral blood flow. The series can be described thus: Vertebral and femoral blood flow in anesthetized dogs. Type of series: in vivo, mongrel dog. Particulars: 0.01 mg/kg i.v. (0.01 or 0.03 mg/kg); for Blood pressure change (Δ mmHg): femoral artery; for Separation ratio (percent increase of vertebral blood flow / that of femoral blood flow): significance vs SKF 24260.
Description: Mongrel dogs of both sexes weighing from 12 to 27 kg were anesthetized with sodium pentobarbitol (30 mg/kg i.v.). In all experiments, trachea was cannulated and the animals were artificially ventilated with room air. Blood pressure in cannulated femoral artery was measured by means of a pressure transducer (Nihon Kohden, MPU 0.5). Vertebral and femoral blood flow were measured by a noncannulating electromagnetic flowmeter (Nihon Kohden, MF-25) positioned around the vessels. Recordings were made on an ink-writing polygraph (Nihon Kohden, RM-150 or RM-85). The test compounds were injected at a dose of 0.01 mg/kg into femoral vein.

For another series, the system named is vertebral artery. The series is described as follows: Direct vasodilating effect on vertebral artery, constant volume perfusion. Particulars: intra-arterial; for Vasodilation ED50, vertebral artery: ±SE, maximum response to papaverine 3000 μg i.a. = 100%. Type of series: in vivo, mongrel dog. From the text: (§4) Heparin (1000 μ/Kg, i.v.) was used as an anticoagulant. The methods for perfusion of each artery were as following: 1) For the vertebral artery, the arterial blood led from the left common carotid artery was collected by the tygon tubing and perfused by the Sigma-motor pump (Mippleport N.Y. T-8) into the right vertebral artery. 2) For the femoral artery, the arterial blood led from the proximal femoral artery was perfused by the Sigma-motor pump into the distal femoral artery. […] All drugs were given into a rubber tube connected close to the each arterial cannula by a microinjector (Jintan Terumo, NSN-100).

The test system of the next series is femoral artery. The series is described as follows: Direct vasodilating effect on femoral artery, constant volume perfusion. Type of series: in vivo, mongrel dog. To be noted: intra-arterial; ±SE; maximum response to papaverine 3000 μg i.a. = 100%.
Description: For the analysis of the selective effect on vasculature by the drugs, direct effect on cerebral (vertebral artery) and peripheral (femoral artery) vascular bed were studied by the method of the constant volume perfusion.
as §4

The test system of another series is mice. The series is described as follows: in vivo. Particulars: i.v.; mice. How it is done: as §1, §2, §3
For a further series, the system named is guinea-pig ileum. The series can be described thus: Spasmolytic activity in isolated guinea-pig ileum (Magnus apparatus). To be noted: Cavia porcellus, ±S.E. The method, then: Methods: Isolated guinea-pig ileum was suspended in Tyrodes solution by use of Magnus apparatus and the movements of the muscle were recorded in a kymograph by an isotonic lever.

A short description of series [6]: in vivo. To be noted: dog, iv.

For the molecule `CCOC(=O)C1=C(C)NC(C)=C(C(=O)OCC)C1c1ccccc1C(F)(F)F` [SKF 24260, 3,5-dicarbethoxy-1,4-dihydro-2,6-dimethyl-4-(2-trifluoromethylphenyl) pyridine, reference compound], in “in vivo [1]”, the LD50 (commonly the dose at which mortality reaches 50%) stood at 0.8 mg/kg. Also, in series [2] (U.S. Pat. No. 3,511,837), the Hypotensive activity result is reported as “shows hypotensive activity”. Moreover, the “pH (of solubility determination)” value in series [3] (known compounds, 25° C) is 5.40. Further, the solubility (usually the concentration that dissolves in the medium under given conditions) in series [3] (known compounds, 25° C, at the given pH, read-out: Solubility) was found to be 10 µg/mL (≈ 25.2 µM). The solubility in series [3] (known compounds, pH 4.00, 25° C, read-out: Solubility at pH 4.00) stood at 10 µg/mL (≈ 25.2 µM). The “Water-solubility (in words)” value in [4] is on record as “very poorly water-soluble”. In addition, in [5], the “Femoral blood flow (FBF %)” value is on record as 165 ± 40%, the “Vertebral blood flow (VBF Δ %)” value is 144 ± 17.7 Δ %, the “Blood pressure change (Δ mmHg)” value is -44 ± 4.8 Δ mmHg and the “Separation ratio (percent increase of vertebral blood flow / that of femoral blood flow)” value worked out at 0.93 ± 0.11.

Take `COC(=O)C1=C(C)NC(C)=C(C(=O)OC)C1c1ccccc1[N+](=O)[O-]` [Nifedipine, 4-(2'-nitrophenyl)-2,6-dimethyl-1,4-dihydropyridine-3,5-dicarboxylic acid dimethyl ester]: the “Vasodilation ED50, vertebral artery” value in the series with vertebral artery came out at 0.74 ± 0.15 µg. The “Coronary vasodilator activity and spasmolytic activity” value in series [2] (Naturwissenschaften 58, (11)578(1971)) was “much excellent coronary vasodilator activity and spasmolytic activity”. Further, the “Vasodilation ED50, femoral artery” value in the series on femoral artery was 0.37 ± 0.11 µg. Further, in the series with anesthetized dogs (0.001 mg/Kg i.v.), the “Heart rate (Δbeats/min.±SE)” value is recorded as 10±3.5 Δbeats/min, the “Mean blood pressure (ΔmmHg±SE)” value is on record as -10±1.6 ΔmmHg and the “Vertebral blood flow (Δ%±SE)” value was 47±13.5 Δ%. Moreover, in the series with anesthetized dogs (0.003 mg/Kg i.v.), the “Heart rate (Δbeats/min.±SE)” value is listed as 18±3.2 Δbeats/min, the “Mean blood pressure (ΔmmHg±SE)” value is recorded as -24±5.9 ΔmmHg and the “Vertebral blood flow (Δ%±SE)” value is given as 104±25.8 Δ%. For the same molecule, in the series with anesthetized dogs (0.01 mg/Kg i.v.), the “Heart rate (Δbeats/min.±SE)” value is listed as 17±4.0 Δbeats/min, the “Mean blood pressure (ΔmmHg±SE)” value is -39±3.2 ΔmmHg and the “Vertebral blood flow (Δ%±SE)” value is reported as 135±28.8 Δ%. In addition, in series [5], the “Femoral blood flow (FBF %)” value was 109 ± 34.1%, the “Vertebral blood flow (VBF Δ %)” value is reported as 135 ± 28.8 Δ % and the “Blood pressure change (Δ mmHg)” value is -39 ± 3.2 Δ mmHg.

With `COC(=O)C1=C(C)NC(C)=C(C(=O)OCCN(C)Cc2ccccc2)C1c1cccc([N+](=O)[O-])c1` (stereo not drawn) [Example 2, 2,6-dimethyl-4-(3'-nitrophenyl)-1,4-dihydropyridine-3,5-dicarboxylic acid 3-β-(N-benzyl-N-methylamino)ethyl ester 5-methyl ester hydrochloride], the LD50 with mice is 20.7 mg/kg; in the series “in vivo [1]”, 20.7 mg/kg; in “in vivo [6]” it was 6.1 mg/kg. For the same molecule, the “Selectivity ratio (ED50 in femoral artery/ED50 in vertebral artery)” value in the series on vertebral artery (anesthetized dogs) was found to be 1.30. For the same molecule, the “Vasodilation ED50, vertebral artery” value in the series on vertebral artery was found to be 0.66 ± 0.20 µg. For the same molecule, the IC50 in the series on guinea-pig ileum (read-out: Spasmolytic activity, 50% inhibition of contractile response, Acetylchloline 10^-7 g/ml) came out at 5.2 ng/mL; in the series on guinea-pig ileum (read-out: Spasmolytic activity, 50% inhibition of contractile response, BaCl2 2×10^-4 g/ml), 1.9 ng/mL; with guinea-pig ileum (read-out: Spasmolytic activity, 50% inhibition of contractile response, Histamine 10^-7 g/ml) it was 1.8 ng/mL. Besides, in the series on femoral artery, the “Vasodilation ED50, femoral artery” value worked out at 0.86 ± 0.11 µg. For the same molecule, the “pH (of solubility determination)” value in series [3] (compounds of the present invention, 25° C) is reported as 3.92. For the same molecule, the solubility in series [3] (compounds of the present invention, 25° C, at the given pH, read-out: Solubility) was determined as 4900 µg/mL. For the same molecule, the “Heart rate (Δbeats/min.±SE)” value is 4±1.3 Δbeats/min in the series on anesthetized dogs (0.0003 mg/Kg i.v.), 12±2.2 Δbeats/min in the series on anesthetized dogs (0.001 mg/Kg i.v.), 18±2.0 Δbeats/min in the series with anesthetized dogs (0.003 mg/Kg i.v.) and 25±5.3 Δbeats/min in the series on anesthetized dogs (0.01 mg/Kg i.v.). The “Mean blood pressure (ΔmmHg±SE)” value is -1±0.6 ΔmmHg with anesthetized dogs (0.0003 mg/Kg i.v.), -7±1.5 ΔmmHg in the series with anesthetized dogs (0.001 mg/Kg i.v.), -14±2.2 ΔmmHg in the series with anesthetized dogs (0.003 mg/Kg i.v.) and -29±3.6 ΔmmHg with anesthetized dogs (0.01 mg/Kg i.v.). For the same molecule, the “Vertebral blood flow (Δ%±SE)” value was 27±4.4 Δ% with anesthetized dogs (0.0003 mg/Kg i.v.), 61±9.5 Δ% with anesthetized dogs (0.001 mg/Kg i.v.), 132±13.8 Δ% with anesthetized dogs (0.003 mg/Kg i.v.) and 200±27.3 Δ% in the series on anesthetized dogs (0.01 mg/Kg i.v.). Also, in [5], the “Femoral blood flow (FBF %)” value came out at 51 ± 5.8%. Besides, the “Vertebral blood flow (VBF Δ %)” value in series [5] was 200 ± 27.3 Δ %. Also, the “Blood pressure change (Δ mmHg)” value in series [5] is recorded as -29 ± 3.6 Δ mmHg. Further, the “Separation ratio (percent increase of vertebral blood flow / that of femoral blood flow)” value in series [5] came to 4.19 ± 0.69.
